# Experiments:
# pigweed [1] = test: Test A postemergence; format: in vivo, Amaranthus retroflexus; conditions: for Plant response rating, Pigweed: 0 to 100 scale, 0 no effect, 100 complete control
# How it was run: (§1)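 Pre- and postemergence greenhouse screen. Soil: loam + sand. Spray carrier: solvent mixture, non-phytotoxic, with surfactant. Post timing at 1–2 leaves, height 2–10 cm. Readout: visual injury on a 0–100 scale roughly 10 days after application, untreated plants as reference.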
# kochia [2] = test: Test A postemergence; format: in vivo, Kochia scoparia; conditions: for Plant response rating, Kochia: 0 to 100 scale, 0 no effect, 100 complete control
# How it was run: as §1
# Heteranthera limosa = test: Test B flooded paddy test; format: in vivo; conditions: Flood, 250 g ai/ha; 0 to 100 scale where 0 is no effect and 100 is complete control
# How it was run: (§2)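 Post-emergence paddy-water application at the 2-leaf stage, with 3 cm flood kept for the whole test. Response was judged visually relative to controls after 13 to 15 greenhouse days, 0 indicating no effect and 100 complete control.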
# wheat = test: Test A postemergence; format: in vivo, Triticum aestivum; conditions: for Plant response rating, Wheat: 0 to 100 scale, 0 no effect, 100 complete control
# How it was run: as §1
# pigweed [3] = test: Test A preemergence; format: in vivo, Amaranthus retroflexus; conditions: for Plant response rating, Pigweed: 0 to 100 scale where 0 is no effect and 100 is complete control
# How it was run: as §1
# corn = test: Test A postemergence; format: in vivo, Zea mays; conditions: for Plant response rating, Corn: 0 to 100 scale, 0 no effect, 100 complete control
# How it was run: as §1
# ragweed [4] = test: Test A preemergence; format: in vivo, Ambrosia elatior; conditions: for Plant response rating, Ragweed: 0 to 100 scale where 0 is no effect and 100 is complete control
# How it was run: as §1
# ragweed [5] = test: Test A postemergence; format: in vivo, Ambrosia elatior; conditions: for Plant response rating, Ragweed: 0 to 100 scale, 0 no effect, 100 complete control
# How it was run: as §1
# rice = test: Test B flooded paddy test; format: in vivo, Oryza sativa; conditions: Flood, 250 g ai/ha; 0 to 100 scale where 0 is no effect and 100 is complete control
# How it was run: as §2
# giant foxtail [6] = test: Test A preemergence; format: in vivo, Setaria faberii; conditions: for Plant response rating, Foxtail, Giant: 0 to 100 scale where 0 is no effect and 100 is complete control
# How it was run: as §1
# barnyardgrass [7] = test: Test A postemergence; format: in vivo, Echinochloa crus-galli; conditions: for Plant response rating, Barnyardgrass: 0 to 100 scale, 0 no effect, 100 complete control
# How it was run: as §1
# barnyardgrass [8] = test: Test A preemergence; format: in vivo, Echinochloa crus-galli; conditions: for Plant response rating, Barnyardgrass: 0 to 100 scale where 0 is no effect and 100 is complete control
# How it was run: as §1
# galium = test: Test A postemergence; format: in vivo, Galium aparine; conditions: for Plant response rating, Galium: 0 to 100 scale, 0 no effect, 100 complete control
# How it was run: as §1
# giant foxtail [9] = test: Test A postemergence; format: in vivo, Setaria faberii; conditions: for Plant response rating, Foxtail, Giant: 0 to 100 scale, 0 no effect, 100 complete control
# How it was run: as §1
# kochia [10] = test: Test A preemergence; format: in vivo, Kochia scoparia; conditions: for Plant response rating, Kochia: 0 to 100 scale where 0 is no effect and 100 is complete control
# How it was run: as §1
# Italian ryegrass [11] = test: Test A preemergence; format: in vivo, Lolium multiflorum; conditions: for Plant response rating, Ryegrass, Italian: 0 to 100 scale where 0 is no effect and 100 is complete control
# How it was run: as §1
# Italian ryegrass [12] = test: Test A postemergence; format: in vivo, Lolium multiflorum; conditions: for Plant response rating, Ryegrass, Italian: 0 to 100 scale, 0 no effect, 100 complete control
# How it was run: as §1
# sedge, umbrella = test: Test B flooded paddy test; format: in vivo, Cyperus difformis; conditions: Flood, 250 g ai/ha; 0 to 100 scale where 0 is no effect and 100 is complete control
# How it was run: as §2
# barnyardgrass [13] = test: Test B flooded paddy test; format: in vivo, Echinochloa crus-galli; conditions: Flood, 250 g ai/ha; 0 to 100 scale where 0 is no effect and 100 is complete control
# How it was run: as §2
# blackgrass = test: Test A postemergence; format: in vivo, Alopecurus myosuroides; conditions: for Plant response rating, Blackgrass: 0 to 100 scale, 0 no effect, 100 complete control
# How it was run: as §1
# [14] = 125 g ai/ha, 0 to 100 scale where 0 is no effect and 100 is complete control
# [15] = 31 g ai/ha, visual, approximately 10 days
# [16] = 1000 g ai/ha, 0 to 100 scale, 0 no effect, 100 complete control, approx. 10 days
structure (smiles),measurement,setting,value
CCCOc1cnn(-c2c(F)cccc2Oc2ncc(F)cn2)c1 [Compound 153],"Plant response rating, Pigweed",pigweed [1]; 31 g ai/ha,0
same,Pigweed plant response rating,pigweed [1]; [14],0
same,"Plant response rating, Kochia",kochia [2]; 31 g ai/ha,0
same,Kochia plant response rating,kochia [2]; [14],0
same,"Plant response rating, Ducksalad",Heteranthera limosa,30
same,"Plant response rating, Wheat",wheat; 31 g ai/ha,0
same,Wheat plant response rating,wheat; [14],0
same,"Plant response rating, Pigweed",pigweed [3]; [15],0
same,"Plant response rating, Pigweed",pigweed [3]; 125 g ai/ha,0
same,"Plant response rating, Corn",corn; 31 g ai/ha,0
same,Corn plant response rating,corn; [14],0
same,"Plant response rating, Ragweed",ragweed [4]; [15],0
same,"Plant response rating, Ragweed",ragweed [4]; 125 g ai/ha,0
same,"Plant response rating, Ragweed",ragweed [5]; 31 g ai/ha,0
same,Ragweed plant response rating,ragweed [5]; [14],0
same,"Plant response rating, Rice",rice,0
same,"Plant response rating, Foxtail, Giant",giant foxtail [6]; [15],0
same,"Plant response rating, Foxtail, Giant",giant foxtail [6]; 125 g ai/ha,0
same,"Plant response rating, Barnyardgrass",barnyardgrass [7]; 31 g ai/ha,0
same,Barnyardgrass plant response rating,barnyardgrass [7]; [14],0
same,"Plant response rating, Barnyardgrass",barnyardgrass [8]; [15],0
same,"Plant response rating, Barnyardgrass",barnyardgrass [8]; 125 g ai/ha,0
same,"Plant response rating, Galium",galium; 31 g ai/ha,0
same,Galium plant response rating,galium; [14],0
same,"Plant response rating, Foxtail, Giant",giant foxtail [9]; 31 g ai/ha,0
same,"Foxtail, Giant plant response rating",giant foxtail [9]; [14],0
same,"Plant response rating, Kochia",kochia [10]; [15],0
same,"Plant response rating, Kochia",kochia [10]; 125 g ai/ha,0
same,"Plant response rating, Ryegrass, Italian",Italian ryegrass [11]; [15],0
same,"Plant response rating, Ryegrass, Italian",Italian ryegrass [11]; 125 g ai/ha,0
same,"Plant response rating, Ryegrass, Italian",Italian ryegrass [12]; 31 g ai/ha,0
same,"Ryegrass, Italian plant response rating",Italian ryegrass [12]; [14],0
same,"Plant response rating, Sedge, Umbrella","sedge, umbrella",0
same,"Plant response rating, Barnyardgrass",barnyardgrass [13],0
same,"Plant response rating, Blackgrass",blackgrass; 31 g ai/ha,0
same,Blackgrass plant response rating,blackgrass; [14],0
FC(F)(F)c1cnn(-c2c(Oc3ncc(Cl)cn3)cccc2-c2ncon2)c1 [Compound 279],"Plant response rating, Pigweed",pigweed [1]; 31 g ai/ha,50
same,"Plant response rating, Pigweed",pigweed [1]; 125 g ai/ha,80
same,"Plant response rating, Kochia",kochia [2]; 31 g ai/ha,40
same,"Plant response rating, Kochia",kochia [2]; 125 g ai/ha,90
same,"Plant response rating, Ducksalad",Heteranthera limosa,90
same,"Plant response rating, Wheat",wheat; 31 g ai/ha,0
same,"Plant response rating, Wheat",wheat; 125 g ai/ha,30
same,"Plant response rating, Pigweed",pigweed [3]; [15],90
same,Pigweed plant response rating (0 to 100 scale),pigweed [3]; 125 g ai/ha,100
same,"Plant response rating, Corn",corn; 31 g ai/ha,10
same,"Plant response rating, Corn",corn; 125 g ai/ha,10
same,"Plant response rating, Ragweed",ragweed [4]; [15],0
same,Ragweed plant response rating (0 to 100 scale),ragweed [4]; 125 g ai/ha,10
same,"Plant response rating, Ragweed",ragweed [5]; 31 g ai/ha,20
same,"Plant response rating, Ragweed",ragweed [5]; 125 g ai/ha,40
same,"Plant response rating, Rice",rice,50
same,"Plant response rating, Foxtail, Giant",giant foxtail [6]; [15],40
same,"Foxtail, Giant plant response rating (0 to 100 scale)",giant foxtail [6]; 125 g ai/ha,50
same,"Plant response rating, Barnyardgrass",barnyardgrass [7]; 31 g ai/ha,0
same,"Plant response rating, Barnyardgrass",barnyardgrass [7]; 125 g ai/ha,30
same,"Plant response rating, Barnyardgrass",barnyardgrass [8]; [15],0
same,"Barnyardgrass plant response rating (0 to 100 scale, 0 is no effect, 100 is complete control)",barnyardgrass [8]; 125 g ai/ha,10
same,"Plant response rating, Galium",galium; 31 g ai/ha,20
same,"Plant response rating, Galium",galium; 125 g ai/ha,80
same,"Plant response rating, Foxtail, Giant",giant foxtail [9]; 31 g ai/ha,10
same,"Plant response rating, Foxtail, Giant",giant foxtail [9]; 125 g ai/ha,50
same,"Plant response rating, Kochia",kochia [10]; [15],40
same,Kochia plant response rating (0 to 100 scale),kochia [10]; 125 g ai/ha,90
same,"Plant response rating, Ryegrass, Italian",Italian ryegrass [11]; [15],0
same,"Ryegrass, Italian plant response rating (0 to 100 scale)",Italian ryegrass [11]; 125 g ai/ha,0
same,"Plant response rating, Ryegrass, Italian",Italian ryegrass [12]; 31 g ai/ha,0
same,"Plant response rating, Ryegrass, Italian",Italian ryegrass [12]; 125 g ai/ha,50
same,"Plant response rating, Sedge, Umbrella","sedge, umbrella",90
same,"Plant response rating, Barnyardgrass",barnyardgrass [13],75
same,"Plant response rating, Blackgrass",blackgrass; 31 g ai/ha,10
same,"Plant response rating, Blackgrass",blackgrass; 125 g ai/ha,40
NS(=O)(=O)c1cnn(-c2ccccc2Oc2ncc(Cl)cn2)c1 [Compound 282],"Plant response rating, Pigweed",pigweed [1]; 1000 g ai/ha,80
same,"Plant response rating, Kochia",kochia [2]; 1000 g ai/ha,90
same,"Plant response rating, Ducksalad",Heteranthera limosa,0
same,"Plant response rating, Wheat",wheat; 1000 g ai/ha,0
same,Pigweed plant response rating,pigweed [3]; [16],100
same,"Plant response rating, Corn",corn; 1000 g ai/ha,50
same,Ragweed plant response rating,ragweed [4]; [16],100
same,"Plant response rating, Ragweed",ragweed [5]; 1000 g ai/ha,100
same,"Plant response rating, Rice",rice,0
same,"Foxtail, Giant plant response rating",giant foxtail [6]; [16],100
same,"Plant response rating, Barnyardgrass",barnyardgrass [7]; 1000 g ai/ha,90
same,Barnyardgrass plant response rating,barnyardgrass [8]; [16],90
same,"Plant response rating, Galium",galium; 1000 g ai/ha,30
same,"Plant response rating, Foxtail, Giant",giant foxtail [9]; 1000 g ai/ha,60
same,Kochia plant response rating,kochia [10]; [16],100
same,"Ryegrass, Italian plant response rating",Italian ryegrass [11]; [16],50
same,"Plant response rating, Ryegrass, Italian",Italian ryegrass [12]; 1000 g ai/ha,80
same,"Plant response rating, Sedge, Umbrella","sedge, umbrella",0
same,"Plant response rating, Barnyardgrass",barnyardgrass [13],0
same,"Plant response rating, Blackgrass",blackgrass; 1000 g ai/ha,100

# From US9695155B2, “Herbicidal substituted pyrimidinyloxy benzene compounds” (E. I. DU PONT DE NEMOURS AND COMPANY, priority 2013, dated 2017)
